Peptide text beside a SMILES is read from it. * marks the point of attachment. NH(4-amidinobenzyl) = N=C(N)c1ccc(CN*)cc1; Decanoyl = CCCCCCCCCC(=O)*; X2 = N=C(N)NC/C=C/CN*; CH2Cl = ClC*
Experiments:
[1] = target: T1, furin (Homo sapiens, UniProt P09958); format: cell-based
T1 construct: endogenous in cells; host or cells: HEK293

[2] = test system: Escherichia coli O157:H7 Shiga toxin

T1 sequence (P09958 108-794): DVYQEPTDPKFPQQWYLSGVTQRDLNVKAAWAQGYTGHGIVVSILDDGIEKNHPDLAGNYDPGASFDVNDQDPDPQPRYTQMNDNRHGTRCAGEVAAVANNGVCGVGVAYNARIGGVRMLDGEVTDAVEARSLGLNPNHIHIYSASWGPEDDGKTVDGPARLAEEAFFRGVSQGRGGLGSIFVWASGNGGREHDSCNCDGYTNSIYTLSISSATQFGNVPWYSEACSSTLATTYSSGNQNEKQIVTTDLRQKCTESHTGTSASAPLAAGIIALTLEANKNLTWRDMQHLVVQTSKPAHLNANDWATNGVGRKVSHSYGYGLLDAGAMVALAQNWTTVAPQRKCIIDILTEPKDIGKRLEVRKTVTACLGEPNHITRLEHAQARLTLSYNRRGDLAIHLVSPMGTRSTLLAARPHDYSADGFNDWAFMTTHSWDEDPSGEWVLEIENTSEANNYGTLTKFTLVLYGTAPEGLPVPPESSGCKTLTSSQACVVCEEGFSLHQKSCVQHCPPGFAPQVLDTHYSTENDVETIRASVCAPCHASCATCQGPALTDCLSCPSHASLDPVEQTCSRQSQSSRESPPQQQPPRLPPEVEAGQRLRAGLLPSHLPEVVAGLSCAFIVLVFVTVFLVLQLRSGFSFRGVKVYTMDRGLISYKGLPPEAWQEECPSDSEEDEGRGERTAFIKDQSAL

| SMILES | potency against furin in cell fusion inhibition, compared to RxxT control peptide [1] | IC50 [2] [µM] | IC50 described in words [2] |
| --- | --- | --- | --- |
| C[C@H](NC(=O)[C@H](CCCNC(=N)N)NC(=O)CCCCCCCN)C(=O)N[C@@H](CCCNC(=N)N)C(=O)N[C@@H](CCCNC(=N)N)C(=O)N[C@@H](CCCNC(=N)N)C(=O)N[C@@H](CCCCN)C(=O)N[C@@H](CCCCN)C(=O)NN(CCCNC(=N)N)CC(=O)N[C@H](C(N)=O)[C@@H](C)O [Aoc-RxxT[Azaβ3R]^P1] | increased potency | 16.7 | similar |
| CCCCCCCCCC(=O)N[C@@H](CCCNC(=N)N)C(=O)N[C@H](C(=O)N[C@@H](CCCCN)C(=O)N[C@@H](CCCNC(=N)N)C(=O)CCl)[C@@H](C)O [DEC-RTKR-CMK, reference compound] (Decanoyl-RTKR-CH2Cl) |  | 11.5 |  |
| CC(=O)N[C@@H](CCCNC(=N)N)C(=O)N[C@@H](C)C(=O)N[C@@H](CCCNC(=N)N)C(=O)N[C@@H](CCCNC(=N)N)C(=O)N[C@@H](CCCNC(=N)N)C(=O)N[C@@H](CCCCN)C(=O)N[C@@H](CCCCN)C(=O)N[C@@H](CCCNC(=N)N)C(=O)N[C@H](C(N)=O)[C@@H](C)O [RxxT, Ac-R-A-R-R-R-K-K-R-T-NH2, reference compound] |  | > 1000 |  |
| CC(=O)NN(CCCNC(=N)N)CC(=O)N[C@@H](C)C(=O)N[C@@H](CCCNC(=N)N)C(=O)N[C@@H](CCCNC(=N)N)C(=O)N[C@@H](CCCNC(=N)N)C(=O)N[C@@H](CCCCN)C(=O)N[C@@H](CCCCN)C(=O)NN(CCCNC(=N)N)CC(=O)N[C@H](C(N)=O)[C@@H](C)O [RxxT[Azaβ3R]^P1-P8] | increased potency | 20.8 | similar |
| CC(=O)N[C@@H](CCCNC(=N)N)C(=O)N[C@@H](C)C(=O)N[C@@H](CCCNC(=N)N)C(=O)N[C@@H](CCCNC(=N)N)C(=O)N[C@@H](CCCNC(=N)N)C(=O)N[C@@H](CCCCN)C(=O)N[C@@H](CCCCN)C(=O)NN(CCCNC(=N)N)CC(=O)N[C@H](C(N)=O)[C@@H](C)O [RxxT[Azaβ3R]^P1] | increased potency | 314 | low IC50 values |
| CC(=O)N[C@@H](CCCNC(=N)N)C(=O)N[C@@H](C)C(=O)N[C@@H](CCCNC(=N)N)C(=O)N[C@@H](CCCNC(=N)N)C(=O)N[C@@H](CCCNC(=N)N)C(=O)N[C@@H](CCCCN)C(=O)N[C@@H](CCCCN)C(=O)NCc1ccc(C(=N)N)cc1 [Rxx[AMBA]^P1] (Ac-RARRRKK-{NH(4-amidinobenzyl)}) |  | > 1000 |  |
| CC(=O)N[C@@H](CCCNC(=N)N)C(=O)N[C@@H](C)C(=O)N[C@@H](CCCNC(=N)N)C(=O)N[C@@H](CCCNC(=N)N)C(=O)N[C@@H](CCCNC(=N)N)C(=O)N[C@@H](CCCCN)C(=O)N[C@@H](CCCCN)C(=O)NC/C=C/CNC(=N)N [Rxx[ΔAR-CO2]^P1] (Ac-RARRRKK-X2; N-terminus and C-terminus assumed) | increased potency | 71 | low IC50 values |

Reference: US20150141324A1 (priority 2011, published 2015)
